Laboratory results taken from patent US12545639B2, “3-substituted phenylamidine compounds, preparation and use thereof” (PI INDUSTRIES LTD., priority 2019, dated 2026).

How the values were obtained:
Botrytis cinerea = Botrytis cinerea (gray mold) in vitro test, radial growth on potato dextrose agar; type: cell-based; settings: 168 h, 300 ppm in potato dextrose agar, 22° C., 90% relative humidity, seven days, read-out: control compared to the untreated check (radial growth)
Pyricularia oryzae = assay: microbe, parasite or virus in culture; type: cell-based; settings: 168 h, read-out: control compared to the untreated check (radial growth)
Phakopsora pachyrhizi = Phakopsora pachyrhizi test in soybean, preventive, in vivo on plants; settings: in Glycine max, read-out: Efficacy (% control), disease severity compared to the untreated check
Alternaria solani = Alternaria solani (early blight of tomato/potato) in vitro test, radial growth on potato dextrose agar; type: cell-based; settings: 168 h, 300 ppm in potato dextrose agar, 25° C., 60% relative humidity, seven days, read-out: control compared to the untreated check (radial growth)
Rhizoctonia solani = Rhizoctonia solani (rice sheath blight/potato black scurf) in vitro test, radial growth on potato dextrose agar; type: cell-based; settings: 168 h, 300 ppm in potato dextrose agar, 25° C., 60% relative humidity, seven days, read-out: control compared to the untreated check (radial growth)
Colletotrichum capsici = Colletotrichum capsici (anthracnose) in vitro test, radial growth on potato dextrose agar; type: cell-based; settings: Colletotrichum truncatum, 168 h; 300 ppm in potato dextrose agar; 25° C., 60% relative humidity, seven days; read-out: control compared to the untreated check (radial growth)
[1] = tested on: Septoria lycopersici/Corynespora cassicola (CORYCA); assay: Septoria lycopersici/Corynespora cassicola (CORYCA) (leaf spot of tomato) in vitro test, radial growth on potato dextrose agar; type: cell-based; settings: 168 h, 300 ppm in potato dextrose agar, 25° C., 70% relative humidity, seven days, read-out: control compared to the untreated check (radial growth)

CCN(C)C=Nc1cc(Cl)cc(Cc2ccc(F)c(C)c2)c1C [Compound 128, N′-(5-chloro-3-(4-fluoro-3-methylbenzyl)-2-methylphenyl)-N-ethyl-N-methylformimidamide]
≥ 70%: inhibition of growth at 300 ppm (Botrytis cinerea) | inhibition of growth at 300 ppm (Pyricularia oryzae) | pest or weed control at 500 ppm (Phakopsora pachyrhizi) | inhibition of growth at 300 ppm (Alternaria solani) | inhibition of growth at 300 ppm (Rhizoctonia solani) | inhibition of growth at 300 ppm (Colletotrichum capsici) | inhibition of growth at 300 ppm [1]

CCN(C)C=Nc1cc(F)cc(Nc2cc(Cl)cc(C(F)(F)F)c2)c1C [Compound 161, N′-(3-((3-chloro-5-(trifluoromethyl)phenyl)amino)-5-fluoro-2-methylphenyl)-N-ethyl-N-methylformimidamide]
≥ 70%: inhibition of growth at 300 ppm (Botrytis cinerea) | inhibition of growth at 300 ppm (Pyricularia oryzae) | pest or weed control at 500 ppm (Phakopsora pachyrhizi) | inhibition of growth at 300 ppm (Alternaria solani) | inhibition of growth at 300 ppm (Rhizoctonia solani) | inhibition of growth at 300 ppm (Colletotrichum capsici) | inhibition of growth at 300 ppm [1]

CCN(C)C=Nc1cc(C)cc(Cc2ccc(Br)c(C)c2)c1Cl [Compound 216, N′-(3-(4-bromo-3-methylbenzyl)-2-chloro-5-methylphenyl)-N-ethyl-N-methylformimidamide]
≥ 70%: inhibition of growth at 300 ppm (Botrytis cinerea) | inhibition of growth at 300 ppm (Pyricularia oryzae) | pest or weed control at 500 ppm (Phakopsora pachyrhizi) | inhibition of growth at 300 ppm (Alternaria solani) | inhibition of growth at 300 ppm (Rhizoctonia solani) | inhibition of growth at 300 ppm (Colletotrichum capsici) | inhibition of growth at 300 ppm [1]

CCN(C)C=Nc1cc(Cl)cc(Cc2ccccc2Cl)c1C [Compound 89, N′-(5-chloro-3-(2-chlorobenzyl)-2-methylphenyl)-N-ethyl-N-methylformimidamide]
≥ 70%: inhibition of growth at 300 ppm (Botrytis cinerea) | inhibition of growth at 300 ppm (Pyricularia oryzae) | pest or weed control at 500 ppm (Phakopsora pachyrhizi) | inhibition of growth at 300 ppm (Alternaria solani) | inhibition of growth at 300 ppm (Rhizoctonia solani) | inhibition of growth at 300 ppm (Colletotrichum capsici) | inhibition of growth at 300 ppm [1]

CCN(C)C=Nc1cc(F)cc(Cc2cccc(C(F)(F)F)c2)c1C [Compound 201, N-ethyl-N′-(5-fluoro-2-methyl-3-(3-(trifluoromethyl)benzyl)phenyl)-N-methylformimidamide]
≥ 70%: inhibition of growth at 300 ppm (Botrytis cinerea) | inhibition of growth at 300 ppm (Pyricularia oryzae) | pest or weed control at 500 ppm (Phakopsora pachyrhizi) | inhibition of growth at 300 ppm (Alternaria solani) | inhibition of growth at 300 ppm (Rhizoctonia solani) | inhibition of growth at 300 ppm (Colletotrichum capsici) | inhibition of growth at 300 ppm [1]

CCN(C)C=Nc1cc(C)cc(Cc2ccccc2F)c1Cl [Compound 14, N′-(2-chloro-3-(2-fluorobenzyl)-5-methylphenyl)-N-ethyl-N-methylformimidamide]
≥ 70%: inhibition of growth at 300 ppm (Botrytis cinerea) | inhibition of growth at 300 ppm (Pyricularia oryzae) | pest or weed control at 500 ppm (Phakopsora pachyrhizi) | inhibition of growth at 300 ppm (Alternaria solani) | inhibition of growth at 300 ppm (Rhizoctonia solani) | inhibition of growth at 300 ppm (Colletotrichum capsici) | inhibition of growth at 300 ppm [1]

CCN(C)C=Nc1cc(F)cc(Cc2ccccc2C(F)(F)F)c1C [Compound 143, N-ethyl-N′-(5-fluoro-2-methyl-3-(2-(trifluoromethyl)benzyl)phenyl)-N-methylformimidamide]
≥ 70%: inhibition of growth at 300 ppm (Botrytis cinerea) | inhibition of growth at 300 ppm (Pyricularia oryzae) | pest or weed control at 500 ppm (Phakopsora pachyrhizi) | inhibition of growth at 300 ppm (Alternaria solani) | inhibition of growth at 300 ppm (Rhizoctonia solani) | inhibition of growth at 300 ppm (Colletotrichum capsici) | inhibition of growth at 300 ppm [1]

CCN(C)C=Nc1cc(F)cc(Cc2cc(C)cc(F)c2)c1C [Compound 235, N-ethyl-N′-(5-fluoro-3-(3-fluoro-5-methylbenzyl)-2-methylphenyl)-N-methylformimidamide]
≥ 70%: inhibition of growth at 300 ppm (Botrytis cinerea) | inhibition of growth at 300 ppm (Pyricularia oryzae) | pest or weed control at 500 ppm (Phakopsora pachyrhizi) | inhibition of growth at 300 ppm (Alternaria solani) | inhibition of growth at 300 ppm (Rhizoctonia solani) | inhibition of growth at 300 ppm (Colletotrichum capsici) | inhibition of growth at 300 ppm [1]

CCN(C)C=Nc1cc(F)cc(Nc2cccc(C)c2)c1C [Compound 31, N-ethyl-N′-(5-fluoro-2-methyl-3-(m-tolylamino)phenyl)-N-methylformimidamide]
≥ 70%: inhibition of growth at 300 ppm (Botrytis cinerea) | inhibition of growth at 300 ppm (Pyricularia oryzae) | pest or weed control at 500 ppm (Phakopsora pachyrhizi) | inhibition of growth at 300 ppm (Alternaria solani) | inhibition of growth at 300 ppm (Rhizoctonia solani) | inhibition of growth at 300 ppm (Colletotrichum capsici) | inhibition of growth at 300 ppm [1]

CCN(C)C=Nc1cc(C)cc(Cc2c(F)cccc2F)c1Cl [Compound 91, N′-(2-chloro-3-(2,6-difluorobenzyl)-5-methylphenyl)-N-ethyl-N-methylformimidamide]
≥ 70%: inhibition of growth at 300 ppm (Botrytis cinerea) | inhibition of growth at 300 ppm (Pyricularia oryzae) | pest or weed control at 500 ppm (Phakopsora pachyrhizi) | inhibition of growth at 300 ppm (Alternaria solani) | inhibition of growth at 300 ppm (Rhizoctonia solani) | inhibition of growth at 300 ppm (Colletotrichum capsici) | inhibition of growth at 300 ppm [1]

CCN(C)C=Nc1cc(C)cc(Nc2cccc(C(C)C)c2)c1Cl [Compound 58, N′-(2-chloro-3-((3-isopropylphenyl)amino)-5-methylphenyl)-N-ethyl-N-methylformimidamide]
≥ 70%: inhibition of growth at 300 ppm (Botrytis cinerea) | inhibition of growth at 300 ppm (Pyricularia oryzae) | pest or weed control at 500 ppm (Phakopsora pachyrhizi) | inhibition of growth at 300 ppm (Alternaria solani) | inhibition of growth at 300 ppm (Rhizoctonia solani) | inhibition of growth at 300 ppm (Colletotrichum capsici) | inhibition of growth at 300 ppm [1]

CCN(C)C=Nc1cc(C)cc(Nc2cc(Cl)ccc2C)c1Cl [Compound 100, N′-(2-chloro-3-((5-chloro-2-methylphenyl)amino)-5-methylphenyl)-N-ethyl-N-methylformimidamide]
≥ 70%: inhibition of growth at 300 ppm (Botrytis cinerea) | inhibition of growth at 300 ppm (Pyricularia oryzae) | pest or weed control at 500 ppm (Phakopsora pachyrhizi) | inhibition of growth at 300 ppm (Alternaria solani) | inhibition of growth at 300 ppm (Rhizoctonia solani) | inhibition of growth at 300 ppm (Colletotrichum capsici) | inhibition of growth at 300 ppm [1]

CCN(C)C=Nc1cc(C)cc(Cc2ccc(Br)cc2F)c1Cl [Compound 217, N′-(3-(4-bromo-2-fluorobenzyl)-2-chloro-5-methylphenyl)-N-ethyl-N-methylformimidamide]
≥ 70%: inhibition of growth at 300 ppm (Botrytis cinerea) | inhibition of growth at 300 ppm (Pyricularia oryzae) | pest or weed control at 500 ppm (Phakopsora pachyrhizi) | inhibition of growth at 300 ppm (Alternaria solani) | inhibition of growth at 300 ppm (Rhizoctonia solani) | inhibition of growth at 300 ppm (Colletotrichum capsici) | inhibition of growth at 300 ppm [1]

CCN(C)C=Nc1cc(F)cc(Nc2ccc(SC(F)(F)F)cc2)c1C [Compound 16, N-ethyl-N′-(5-fluoro-2-methyl-3-((4-((trifluoromethyl)thio)phenyl)amino)phenyl)-N-methylformimidamide]
≥ 70%: inhibition of growth at 300 ppm (Botrytis cinerea) | inhibition of growth at 300 ppm (Pyricularia oryzae) | pest or weed control at 500 ppm (Phakopsora pachyrhizi) | inhibition of growth at 300 ppm (Alternaria solani) | inhibition of growth at 300 ppm (Rhizoctonia solani) | inhibition of growth at 300 ppm (Colletotrichum capsici) | inhibition of growth at 300 ppm [1]

CCN(C)C=Nc1cc(F)cc(N(C)c2cccc(C)c2)c1C [Compound 38, N-ethyl-N′-(5-fluoro-2-methyl-3-(methyl(m-tolyl)amino)phenyl)-N-methylformimidamide]
≥ 70%: inhibition of growth at 300 ppm (Botrytis cinerea) | inhibition of growth at 300 ppm (Pyricularia oryzae) | pest or weed control at 500 ppm (Phakopsora pachyrhizi) | inhibition of growth at 300 ppm (Alternaria solani) | inhibition of growth at 300 ppm (Rhizoctonia solani) | inhibition of growth at 300 ppm (Colletotrichum capsici) | inhibition of growth at 300 ppm [1]

CCN(C)C=Nc1cc(F)cc(Cc2cccc(Cl)c2)c1C [Compound 144, N′-(3-(3-chlorobenzyl)-5-fluoro-2-methylphenyl)-N-ethyl-N-methylformimidamide]
≥ 70%: inhibition of growth at 300 ppm (Botrytis cinerea) | inhibition of growth at 300 ppm (Pyricularia oryzae) | pest or weed control at 500 ppm (Phakopsora pachyrhizi) | inhibition of growth at 300 ppm (Alternaria solani) | inhibition of growth at 300 ppm (Rhizoctonia solani) | inhibition of growth at 300 ppm (Colletotrichum capsici) | inhibition of growth at 300 ppm [1]

CCN(C)C=Nc1cc(C)cc(Nc2cccc(C)c2F)c1Cl [Compound 123, N′-(2-chloro-3-((2-fluoro-3-methylphenyl)amino)-5-methylphenyl)-N-ethyl-N-methylformimidamide]
≥ 70%: inhibition of growth at 300 ppm (Botrytis cinerea) | inhibition of growth at 300 ppm (Pyricularia oryzae) | pest or weed control at 500 ppm (Phakopsora pachyrhizi) | inhibition of growth at 300 ppm (Alternaria solani) | inhibition of growth at 300 ppm (Colletotrichum capsici) | inhibition of growth at 300 ppm [1]
